# Measured values from PMC9667534, “Insertion of Nanoluc into the Extracellular Loops as a Complementary Method To Establish BRET-Based Binding Assays for GPCRs” (ACS Pharmacology & Translational Science, 2022).
# “And” between values parts separate entries of the source, which are not always exact repeats. Equal entries are not always repeated. Where two headings read alike, the source gives them in different places.
# Key:
# Y1R [1] = target: Y1R; parameters: method as in ref 24,25,27,30-38 (per cell); conditions: different expression systems, sodium-containing or sodium-free buffers, ref 24,25,27,30-38 (per cell); cited from earlier work
# Nluc-Y1R(Y192) [2] = target: T1, Nluc-Y1R(Y192) (Homo sapiens, UniProt P25929); assay: BRET competition binding with fluorescent ligand 1; conditions: competition with 1 (c = 0.5 nM, Kd = 0.24 nM), intact HEK293T cells, mean ± SEM
# T1 sequence (P25929 1-384): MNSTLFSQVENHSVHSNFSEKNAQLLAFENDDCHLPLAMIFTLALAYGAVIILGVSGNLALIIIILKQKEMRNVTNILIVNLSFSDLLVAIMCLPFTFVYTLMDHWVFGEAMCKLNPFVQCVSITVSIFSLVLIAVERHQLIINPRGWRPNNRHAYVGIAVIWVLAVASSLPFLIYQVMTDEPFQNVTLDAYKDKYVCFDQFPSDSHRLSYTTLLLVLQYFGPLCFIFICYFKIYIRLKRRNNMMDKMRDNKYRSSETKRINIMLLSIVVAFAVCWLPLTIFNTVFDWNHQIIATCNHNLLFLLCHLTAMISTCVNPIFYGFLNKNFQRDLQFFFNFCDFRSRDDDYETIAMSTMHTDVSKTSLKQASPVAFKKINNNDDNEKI
# Description: (§1) BRET binding experiments were essentially performed as described[18] with the following minor modifications: 1 day prior to the experiment, HEK293T cells stably expressing the respective Nluc-receptor fusion construct were detached from the cell culture dish by trypsinization, centrifuged (500g, 5 min), and resuspended in L-15 with 5% FCS and 10 mM HEPES (pH 7.4). […] Subsequently, 10 μL of assay buffer containing the investigated fluorescent ligand was added to all wells. After an incubation period of 60 min at 27 °C, 10 μL of the Nluc substrate furimazine (prediluted 1:1000 before use) was added and after an equilibration time of 5 min inside the plate reader (prewarmed to 27 °C), the measurement was started.
# (§2) A positive control containing only fluorescent ligand and no competitor (100% value), as well as a negative control (buffer, 0% value), was included in every experiment.
# (§3) For competition binding experiments, the data were normalized to the BRET ratio obtained for the negative control (buffer, 0% value) and the BRET ratio obtained for wells containing fluorescent ligand, but no competitor (100% value). […] The obtained pIC50 values were subsequently transformed into pKi values by means of the Cheng–Prusoff equation (logarithmic form),[80] for which means and SEMs were calculated.
# Nluc-Y1R(Q291) [3] = target: T2, Nluc-Y1R(Q291) (Homo sapiens, UniProt P25929); assay: BRET competition binding with fluorescent ligand 1; conditions: competition with 1 (c = 0.5 nM, Kd = 0.29 nM), HEK293T cells; mean ± SEM
# T2 sequence (P25929 1-384): T1 sequence (P25929 1-384)
# Description: as §1, §2, §3
# Nluc-M1R(G176) [4] = target: T3, Nluc-M1R(G176) (Homo sapiens, UniProt P11229); assay: biochemical; format: binding
# T3 sequence (P11229 1-460): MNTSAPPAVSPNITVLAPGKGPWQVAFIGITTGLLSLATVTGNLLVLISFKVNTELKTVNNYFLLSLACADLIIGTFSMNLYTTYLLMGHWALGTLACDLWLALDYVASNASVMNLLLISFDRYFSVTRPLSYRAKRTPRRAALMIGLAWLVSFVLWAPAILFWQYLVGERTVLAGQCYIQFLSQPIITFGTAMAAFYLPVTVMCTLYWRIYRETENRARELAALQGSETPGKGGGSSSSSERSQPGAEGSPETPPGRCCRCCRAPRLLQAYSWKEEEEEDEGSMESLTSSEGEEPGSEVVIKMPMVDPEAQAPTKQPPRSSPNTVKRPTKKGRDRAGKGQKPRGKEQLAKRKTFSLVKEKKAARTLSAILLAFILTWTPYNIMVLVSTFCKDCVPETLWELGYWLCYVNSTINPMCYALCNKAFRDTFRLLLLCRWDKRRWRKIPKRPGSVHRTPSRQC
# Description: BRET binding experiments were essentially performed as described[18] with the following minor modifications: 1 day prior to the experiment, HEK293T cells stably expressing the respective Nluc-receptor fusion construct were detached from the cell culture dish by trypsinization, centrifuged (500g, 5 min), and resuspended in L-15 with 5% FCS and 10 mM HEPES (pH 7.4). […] Subsequently, 10 μL of assay buffer containing the investigated fluorescent ligand was added to all wells.
# as §2, §3
# M1R = conditions: cited from earlier work
# Nluc-AT1R(S186) = target: T4, Nluc-AT1R(S186) (Homo sapiens, UniProt P30556); assay: BRET competition binding with fluorescent ligand 3
# T4 sequence (P30556 1-359): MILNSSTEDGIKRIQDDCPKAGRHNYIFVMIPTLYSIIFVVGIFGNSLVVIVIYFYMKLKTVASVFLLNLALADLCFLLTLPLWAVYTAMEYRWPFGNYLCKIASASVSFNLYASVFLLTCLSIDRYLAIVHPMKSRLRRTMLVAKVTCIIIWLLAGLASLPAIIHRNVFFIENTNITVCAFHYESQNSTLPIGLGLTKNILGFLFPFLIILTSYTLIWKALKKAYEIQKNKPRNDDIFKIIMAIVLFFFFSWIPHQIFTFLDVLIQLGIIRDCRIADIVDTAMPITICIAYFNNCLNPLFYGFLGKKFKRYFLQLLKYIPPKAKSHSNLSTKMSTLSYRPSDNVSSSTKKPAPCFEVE
# Description: as §1
# A positive control containing only fluorescent ligand and no competitor (100% value), as well as a negative control (buffer, 0% value), was included in every experiment. […]
# as §3
# AT1R = target: AT1R; parameters: method as in ref 41,44,46-49 (per cell); conditions: different expression systems, ref 41,44,46-49 (per cell); cited from earlier work
# Nluc-Y1R(Y192) [5] = target: T1, Nluc-Y1R(Y192); assay: Kinetic BRET binding (association and dissociation); conditions: 1 c = 0.5 nM
# Nluc-Y1R(Y192) [6] = target: T1, Nluc-Y1R(Y192); assay: BRET saturation binding at intact HEK293T cells
# Description: as §1
# (§4) For BRET experiments, the “raw BRET ratio” was calculated by dividing the emission detected through the 610 LP filter (acceptor) by the emission detected through the 460 BP filter (donor). A baseline correction was performed for all values by subtracting the BRET ratio of a buffer control, yielding “corrected BRET ratios”. […] The obtained Kd values were transformed into pKd values, for which means and SEMs were calculated.
# Nluc-Y1R(Q291) [7] = target: T2, Nluc-Y1R(Q291); assay: BRET saturation binding at intact HEK293T cells
# Description: as §1, §4
# Nluc-Y1R(Δ1–31) = target: T5, Nluc-Y1R(Δ1–31) (Homo sapiens, UniProt P25929); assay: BRET saturation binding at intact HEK293T cells; conditions: mean ± SEM, read-out: pKd (BRET) (converted)
# T5 construct: fused Nluc to Asp32 of the Y1R via a short linker; expressed in transfected cells; host or cells: HEK293T, stably transfected (pcDNA3.1)
# T5 sequence (P25929 32-384): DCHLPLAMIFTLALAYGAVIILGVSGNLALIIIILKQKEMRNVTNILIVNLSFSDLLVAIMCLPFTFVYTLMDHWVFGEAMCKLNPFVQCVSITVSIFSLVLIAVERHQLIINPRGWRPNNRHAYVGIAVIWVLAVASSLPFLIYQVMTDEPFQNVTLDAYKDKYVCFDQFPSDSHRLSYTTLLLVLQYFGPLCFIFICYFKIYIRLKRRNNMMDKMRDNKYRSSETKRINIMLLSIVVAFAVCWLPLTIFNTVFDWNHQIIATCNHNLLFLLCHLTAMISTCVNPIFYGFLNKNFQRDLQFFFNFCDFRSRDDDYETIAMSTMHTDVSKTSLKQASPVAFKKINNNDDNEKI
# Description: as §1, §4
# wild-type Y1R = target: wild-type Y1R; parameters: method as in PMID 35263541; conditions: cited from earlier work
# Nluc-Y1R(Nterm) = target: T6, Nluc-Y1R(Nterm) (Homo sapiens, UniProt P25929); assay: BRET saturation binding at intact HEK293T cells
# T6 construct: expressed in transfected cells; host or cells: HEK293T, stably transfected (pcDNA3.1)
# T6 sequence (P25929 1-384): T1 sequence (P25929 1-384)
# Description: as §1, §4
# Nluc-M1R(Nterm) = target: T7, Nluc-M1R(Nterm) (Homo sapiens, UniProt P11229); assay: BRET saturation binding at intact HEK293T cells; conditions: mean ± SEM, read-out: pKd (BRET) (converted)
# T7 construct: expressed in transfected cells; host or cells: HEK293T, stably transfected (pcDNA3.1)
# T7 sequence (P11229 1-460): T3 sequence (P11229 1-460)
# Description: as §1, §4
# Nluc-M1R(G176) [8] = target: T3, Nluc-M1R(G176); assay: BRET saturation binding at intact HEK293T cells
# Description: as §1, §4
# Nluc-M1R(G176) [9] = target: T3, Nluc-M1R(G176); assay: Kinetic BRET binding (association and dissociation)
# NTS1R = target: NTS1R; parameters: method as in ref 42,44,50-53 (per cell); conditions: different expression systems, ref 42,44,50-53 (per cell); cited from earlier work
# Nluc-NTS1R(T227) = assay: BRET competition binding with fluorescent ligand 2; parameters: species or system human; conditions: competition with 2 (c = 5 nM, Kd = 4.82 nM), intact HEK293T cells, mean ± SEM
# Chain of Nluc-NTS1R(T227) (P30989 1-227 limits assumed): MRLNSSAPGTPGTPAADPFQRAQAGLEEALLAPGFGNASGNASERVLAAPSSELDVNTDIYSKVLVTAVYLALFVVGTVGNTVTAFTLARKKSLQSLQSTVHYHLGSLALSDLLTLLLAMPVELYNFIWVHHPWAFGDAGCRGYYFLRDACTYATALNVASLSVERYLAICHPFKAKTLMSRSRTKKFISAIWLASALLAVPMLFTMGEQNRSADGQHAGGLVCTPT
# Chain of Nluc-NTS1R(T227) (P30989 228-418 limits assumed): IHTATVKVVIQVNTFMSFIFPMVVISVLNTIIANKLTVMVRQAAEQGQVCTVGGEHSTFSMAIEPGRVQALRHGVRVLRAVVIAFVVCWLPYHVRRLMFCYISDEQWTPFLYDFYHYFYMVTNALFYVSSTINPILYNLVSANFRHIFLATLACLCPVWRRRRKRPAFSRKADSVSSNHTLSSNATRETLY
# Description: as §1, §2, §3
# Nluc-NTS1R(T227) (human) [10] = target: Nluc-NTS1R(T227) (human) (UniProt P30989); assay: FRET or BRET; kinetic BRET binding (association then dissociation) at intact HEK293T cells, 27 °C; fluorescent ligand 10 nM; dissociation started with SR142948 or candesartan (2.5 μM)
# Chain of Nluc-NTS1R(T227) (human) (P30989 whole entry): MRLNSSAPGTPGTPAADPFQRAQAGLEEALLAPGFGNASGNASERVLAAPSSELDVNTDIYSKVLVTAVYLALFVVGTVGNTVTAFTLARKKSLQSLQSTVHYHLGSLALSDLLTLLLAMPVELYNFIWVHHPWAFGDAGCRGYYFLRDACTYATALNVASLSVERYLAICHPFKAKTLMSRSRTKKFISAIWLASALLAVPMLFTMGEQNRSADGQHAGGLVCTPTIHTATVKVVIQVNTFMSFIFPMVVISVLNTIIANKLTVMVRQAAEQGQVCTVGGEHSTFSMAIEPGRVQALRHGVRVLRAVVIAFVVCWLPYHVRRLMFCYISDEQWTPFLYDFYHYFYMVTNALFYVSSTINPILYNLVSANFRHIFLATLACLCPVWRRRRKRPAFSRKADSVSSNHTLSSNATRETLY
# Nluc-NTS1R(T227) (human) [11] = target: Nluc-NTS1R(T227) (human) (UniProt P30989); assay: FRET or BRET; BRET saturation binding of the fluorescent ligand at intact HEK293T cells stably expressing the Nluc-receptor construct; 60 min, 27 °C; L-15, 10 mM HEPES pH 7.4, 2% BSA; nonspecific binding with 100-fold excess of SR142948 or candesartan
# Y1R [12] = target: Y1R; parameters: method as in PMID 35263541; conditions: 1 as the fluorescent probe; cited from earlier work
# [13] = intact HEK293T cells, mean ± SEM
# [14] = intact HEK293T cells, mean ± SEM, read-out: pKd (BRET) (converted)
# [15] = value used for Cheng–Prusoff, read-out: Kd
compound,measurement,setting,value
NC(=O)NCc1ccc(CNC(=O)[C@@H](CCCN=C(N)N)NC(=O)C(c2ccccc2)c2ccccc2)cc1 [BIBO3304],reference values (literature),Y1R [1],"8.76–9.60[27],[30],[31]"
NC(N)=NCCC[C@@H](NC(=O)C(c1ccccc1)c1ccccc1)C(=O)NCc1ccc(O)cc1 [BIBP3226],reference values (literature),Y1R [1],"8.14–9.00[25],[27],[30],[33],[34]"
CC(C)c1ccccc1S(=O)(=O)c1cc(N)c2ncccc2c1[N+](=O)[O-] [PD160170],pKi (BRET),Nluc-Y1R(Y192) [2],7.45 ± 0.05
same,reference values (literature),Y1R [1],7.30 and 7.32
CCC(=O)NCCNC(=O)N=C(N)NCCC[C@@H](NC(=O)C(c1ccccc1)c1ccccc1)C(=O)NCc1ccc(O)cc1 [UR-MK299],"pKi (BRET, Nluc-Y1R(Q291))",Nluc-Y1R(Q291) [3],10.06 ± 0.07
same,pKi (BRET),Nluc-Y1R(Y192) [2],10.20 ± 0.06
same,reference values (literature),Y1R [1],10.11[25]
"C=CC[N@@+]12CC[C@@]34c5ccccc5N5/C=C6/[C@H]7C[C@H]8[C@@]9(CC[N@@+]8(CC=C)C/C7=C/CO)c7ccccc7N(/C=C(/[C@@H](C[C@@H]31)/C(=C\CO)C2)[C@H]54)[C@@H]69 [alcuronium, Alcuronium]",displacement of fluorescent ligand 4,Nluc-M1R(G176) [4]; Nluc-M1R(G176),displace the dualsteric ligand 4 completely
same,reference values (literature),M1R,"5.01,[57] 5.25[55]"
"CCOc1nc2cccc(C(=O)O)c2n1Cc1ccc(-c2ccccc2-c2nnn[nH]2)cc1 [candesartan, Candesartan]",Ki,Nluc-AT1R(S186),1.51 nM
same,reference values (literature),AT1R,"8.46–10.28[41],[44],[46]−[48]"
CCC(=O)NCCNC(=O)N=C(N)NCCC[C@@H](NC(=O)[C@@H](c1ccccc1)c1cccc(OCCCC[n+]2c(C)cc(/C=C/C=C/c3ccc(N(C)C)cc3)cc2C)c1)C(=O)NCc1ccc(O)cc1 [compound 1],time of association,Nluc-Y1R(Y192) [5],≤ 60 min
same,koff,Nluc-Y1R(Y192) [5]; [13],6.67e-05 s⁻¹
same,kon,Nluc-Y1R(Y192) [5]; [13],2.38e+06 M⁻¹ s⁻¹
same,fraction still bound after initiation of dissociation,"Nluc-Y1R(Y192) [5]; after 4 h, dissociation by BIBO3304",≈ 40%
same,Kd,"Nluc-Y1R(Y192) [5]; kinetically derived, mean ± SEM, read-out: pKd kinetic (converted)",0.024 nM
same,Kd,Nluc-Y1R(Y192) [6]; [14],0.24 nM
same,Kd,Nluc-Y1R(Y192) [6]; [15],0.24 nM
same,Kd,Nluc-Y1R(Q291) [7]; [14],0.288 nM
same,Kd,Nluc-Y1R(Q291) [7]; [15],0.29 nM
same,Kd,Nluc-Y1R(Δ1–31),2.88 nM
same,pKi (radioligand competition binding),wild-type Y1R,9.95
same,specific signal in BRET saturation binding,Nluc-Y1R(Nterm),no specific signal was detectable
Cc1cc(/C=C/C=C/c2ccc(N(C)C)cc2)cc(C)[n+]1CCNC(=O)CCc1cn(CCCCC2CCN(CC(=O)N3c4ccccc4NC(=O)c4ccccc43)CC2)cn1 [compound 4],Kd,Nluc-M1R(Nterm),6.03 nM
same,Kd,Nluc-M1R(G176) [8]; [14],2.24 nM
same,Kd,Nluc-M1R(G176) [8]; [15],2.26 nM
same,koff,Nluc-M1R(G176) [9],0.00297 s⁻¹
same,kon,Nluc-M1R(G176) [9],367000 M⁻¹ s⁻¹
same,Kd,"Nluc-M1R(G176) [9]; kinetically derived, Nluc-M1R(G176), 4 c = 5 nM, mean ± SEM, read-out: pKd kinetic (converted)",9.12 nM
C[N+](C)(C)CC#CCOC1=NOCC1 [iperoxo],pKi (BRET),Nluc-M1R(G176) [4],7.00 ± 0.07
same,reference values (literature),M1R,6.46[56]
CCCCc1nc(Cl)c(CO)n1Cc1ccc(-c2ccccc2-c2nn[nH]n2)cc1 [losartan],reference values (literature),AT1R,"7.23–8.00[41],[44],[46],[48],[49]"
O=C1CCCN1CC#CCN1CCCC1 [oxotremorine],Ki,Nluc-M1R(G176) [4],1000 nM
same,reference values (literature),M1R,"5.48–5.86[55],[57],[59]"
BMS193885,pKi (BRET),Nluc-Y1R(Y192) [2],8.23 ± 0.01
same,reference values (literature),Y1R [1],"7.66–8.48[27],[35],[36]"
Neurotensin(8–13) [NT(8–13)],reference values (literature),NTS1R,"8.27–9.85[42],[44],[50]−[52]"
SR142948,pKi (BRET),Nluc-NTS1R(T227),7.93 ± 0.12
same,reference values (literature),NTS1R,"8.05–8.99[42],[44],[50],[53]"
UR-AP178 (peptide),koff,Nluc-NTS1R(T227) (human) [10],0.0138 s⁻¹
same,kon,Nluc-NTS1R(T227) (human) [10],2e+06 M⁻¹ s⁻¹
same,pKd kinetic,Nluc-NTS1R(T227) (human) [10],8.16
same,pKd,Nluc-NTS1R(T227) (human) [11],8.32
angiotensin II,time until pIC50 value stabilized,Nluc-AT1R(S186); kinetic BRET competition binding with 3 at Nluc-AT1R(S186),≤ 45 min
same,reference values (literature),AT1R,"7.61–9.62[44],[46]−[49]"
porcine neuropeptide Y [pNPY],pKi (flow cytometry-based competition binding),Y1R [12],7.58
same,reference values (literature),Y1R [1],"7.58–9.75[24],[25],[27],[30]−[32]"
